According to ChEMBL document CHEMBL3507680, “University of Dundee, Gates Library screen for HepG2 cell viability”:

Assay: Human HepG2 cell viability assay in 384 well format
Type: toxicity, cell-based
Design: dose 125 nL, time 70.5 hour; cytotoxicity at 70.5 h: concentration not given beside the values
Conditions: HepG2 cells, read-out: Inhibition

| SMILES | cytotoxicity at 70.5 h |
| --- | --- |
| O=C(COc1ccc(F)cc1F)N1CCOCC(O)(CN2CCCC2)C1 (centres undefined) | -2.46% |
| CC1CN(c2ccccc2Cl)C(=O)CN1C(=O)c1c[nH]c(=O)c(Cl)c1 (centres undefined) | -0.811% |
| Cc1noc(C)c1CN1C[C@@H](C(=O)O)[C@H](c2ccccc2)C1 | -5.34% |
| CN(Cc1cccnc1N)Cc1cccc2ncccc12 | -15.9% |
| COCc1ccc(C(=O)N2CCC(c3nccn3CC3CC3)CC2)o1 | -0.956% |
| CC(=O)NCc1cc2n(n1)CCN(Cc1cc(-c3ccccc3)no1)C2 | -18.6% |
| Cc1ccc2nc(C)cc(C(=O)N[C@H]3COC[C@@H]3N3CCOCC3)c2c1 | -6.73% |
| Cc1n[nH]c(C)c1Sc1ccccc1NC(=O)N1CCCC(C(N)=O)C1 (centres undefined) | 5.35% |
| CCn1c(C)nnc1SCCNc1nc(C)ncc1S(C)(=O)=O | -11.4% |
| Cc1nc(C(C)NC(=O)c2cn(CCC3CCCCC3)nn2)n[nH]1 (centres undefined) | -23.9% |
| N#Cc1ccccc1CN1C[C@@H]2CC[C@H](C1)N(CC1CCC1)C2=O | -4.58% |
| CCc1nc(Cn2ccnc2-c2nccn2C)no1 | -7.78% |
| COc1ccc2[nH]c(=O)c(CN(C)C(C)c3ccccn3)cc2c1 (centres undefined) | -7.2% |
| Cc1nn(-c2ccccc2)c2nc(C(C)(C)CN3CCN(C)CC3)[nH]c12 | -1.61% |
| COc1ccc(C(=O)O)cc1-c1cccc(C(C)N(C)C)c1 (centres undefined) | 0.229% |
| Cc1nc(C(F)(F)F)nc(N2CCC(O)(C(=O)O)CC2)c1C | -6.27% |
| CC(C)(C)N1CC(C(=O)N2CCN(CCn3cncn3)CC2)CC1=O (centres undefined) | -3.91% |
| Cn1c(Cn2ccnc2)nnc1C1CCN(C(=O)c2ccccn2)CC1 | 5.03% |
| CN(C)c1ncc2c(n1)CCCC2NC(=O)C1CC1 (centres undefined) | -11.8% |
| CCc1nn(C)c(Cl)c1CN1CCCC(c2cc(O)nc(C)n2)C1 (centres undefined) | -0.921% |
| CCCc1cc(NCCn2cccn2)n2nccc2n1 | 1.84% |
| CC(C)Cc1ncc2c(n1)CN(C(=O)c1ccc(Cn3ccnc3)o1)C2 | -17.7% |

| SMILES | cytotoxicity at 70.5 h |
| --- | --- |
| CCOCCN(CCOCC)c1nc(C)nc2sccc12 | -0.429% |
| CCc1ncc2c(n1)CN(c1cc(NCCO)nc(N)n1)C2 | -3.48% |
| COc1ccc(OC2CCN(C(=O)[C@@H](N)Cc3c[nH]cn3)CC2)cc1 | 1.71% |
| CN(CCCOc1ccccc1Cl)C(=O)CN1C(=O)CCNC1=O | -3.2% |
| CCc1cc(N[C@@H]2CC[C@@H](N)C2)n2nc(C)c(C)c2n1 | -7.75% |
| COc1ccc2c(c1)C(C(=O)N(C)CCc1cnn(C)c1)CC(=O)N2 (centres undefined) | -8.46% |
| Cc1nnc(CN2CCN(C)C3(CCC(=O)N(CCO)CC3)C2)s1 (centres undefined) | 3.3% |
| CCSc1ncc(-c2nccn2CCN(C)C)cn1 | 8.9% |
| O=C(NCc1ccccn1)c1cc2n(n1)CCNC2 | -3.91% |
| Cc1cc(-c2cc(S(=O)(=O)N3C[C@H](C4CC4)[C@@H](N)C3)c(C)s2)on1 | 19.4% |
| COCc1nc(CN2CCN(c3ccc(OC)cc3)C(=O)C2C)no1 (centres undefined) | -27.3% |
| COCCN1CCCC(O)(CN2CCN(Cc3ccncc3)CC2)C1=O (centres undefined) | -8.23% |
| CCCN(Cc1ccc(S(=O)(=O)NC)cc1)Cc1ccccc1OC | 1.33% |
| OCC1CCCCN1CCn1ccnc1-c1ccc2c(c1)OCCO2 (centres undefined) | -5.38% |
| Cc1ccsc1[C@@H]1CCN(C(=O)CCc2n[nH]c(C)c2C)C[C@H]1O | 0.289% |
| O=C(c1ccc(S(=O)(=O)N2CCSCC2)cc1)N1CCCCCC1 | 14.7% |
| CCn1ccnc1C1CCN(C(=O)C(O)c2ccc(OC)cc2)CC1 (centres undefined) | 4.82% |
| COCc1cc(N2CCc3onc(-c4cccc(OC)c4)c3C2)ncn1 | -5.12% |
| CN(C)S(=O)(=O)c1csc(C(=O)N2CCSCC2)c1 | -1.94% |
| CC(=O)N(C)C1CCN(c2ncc3c(n2)CCN3c2ccccc2)C1 (centres undefined) | -3.48% |
| COc1cccc(SCC(=O)N2CCC(N3CCCC(O)C3)CC2)c1 (centres undefined) | -2.74% |
| COc1cccc(CNC(C)C)c1OCc1ccc(C)cc1 | -3.04% |
